Usually IC50 stands for the point on the concentration scale where inhibition reaches its midpoint.

The structures appear in SMILES notation.

In patent publication US8198273B2, “Compounds and methods for kinase modulation, and indications therefor” (Plexxikon Inc., priority 2009, dated 2012) one finds IC50 data, which are given here for nine compounds.

In one data set the target is B-Raf V600E (Homo sapiens, UniProt P15056, V600E). Nature of the data set: B-Raf V600E biochemical kinase inhibition (AlphaScreen, biotin-MEK1 substrate). Conditions: 100 μM ATP. The method, boiled down: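 Serial 1:3 dilutions of compound (0.1 mM DMSO stock, eight points) were added first, then ATP to start the reaction at 100 μM final.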
B-Raf V600E, sequence (P15056 whole entry V600E): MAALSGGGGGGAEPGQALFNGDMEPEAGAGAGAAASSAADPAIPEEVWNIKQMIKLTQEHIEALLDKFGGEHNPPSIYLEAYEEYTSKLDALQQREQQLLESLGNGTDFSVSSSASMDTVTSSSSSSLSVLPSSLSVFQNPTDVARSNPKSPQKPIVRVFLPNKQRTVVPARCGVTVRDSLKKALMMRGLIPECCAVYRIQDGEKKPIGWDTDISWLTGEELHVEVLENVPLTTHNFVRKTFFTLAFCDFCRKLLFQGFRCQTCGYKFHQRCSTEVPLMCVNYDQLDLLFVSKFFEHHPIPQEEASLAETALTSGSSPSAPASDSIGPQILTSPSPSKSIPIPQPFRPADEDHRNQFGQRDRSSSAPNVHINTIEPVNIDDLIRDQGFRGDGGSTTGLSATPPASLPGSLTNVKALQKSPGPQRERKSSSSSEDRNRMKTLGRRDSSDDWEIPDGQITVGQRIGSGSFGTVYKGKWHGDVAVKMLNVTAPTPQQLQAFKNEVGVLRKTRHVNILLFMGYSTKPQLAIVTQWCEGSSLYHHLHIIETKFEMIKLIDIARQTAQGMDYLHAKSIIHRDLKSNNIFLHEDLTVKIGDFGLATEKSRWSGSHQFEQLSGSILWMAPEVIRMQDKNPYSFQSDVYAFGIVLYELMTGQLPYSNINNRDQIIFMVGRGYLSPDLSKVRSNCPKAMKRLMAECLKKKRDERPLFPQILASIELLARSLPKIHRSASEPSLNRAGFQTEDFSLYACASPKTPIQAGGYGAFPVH
(In general: Bead proximity is the source of the signal in Alpha formats.)

The test system of data set [1] is A375 melanoma cells (B-Raf V600E). The experiment in a line: A375 cell growth inhibition (ATPlite). In kind it is cell-based. The conditions noted are these: Homo sapiens, A-375, 72 h; A375, 3 days incubation. The method, boiled down:
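ATPlite luminescence, taken as a cell-number measure, gave IC50 values after a 3-day 37° C, 5% CO2 incubation. Compounds were tested as 8-point threefold titrations, highest final concentration 10 μM, added to cells seeded the day before.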
(ATP-based viability assays read luminescence as a measure of living cells.)

The target of the next data set is T1, CYP1A2 (Homo sapiens, UniProt P05177).
T1 sequence (P05177 1-516): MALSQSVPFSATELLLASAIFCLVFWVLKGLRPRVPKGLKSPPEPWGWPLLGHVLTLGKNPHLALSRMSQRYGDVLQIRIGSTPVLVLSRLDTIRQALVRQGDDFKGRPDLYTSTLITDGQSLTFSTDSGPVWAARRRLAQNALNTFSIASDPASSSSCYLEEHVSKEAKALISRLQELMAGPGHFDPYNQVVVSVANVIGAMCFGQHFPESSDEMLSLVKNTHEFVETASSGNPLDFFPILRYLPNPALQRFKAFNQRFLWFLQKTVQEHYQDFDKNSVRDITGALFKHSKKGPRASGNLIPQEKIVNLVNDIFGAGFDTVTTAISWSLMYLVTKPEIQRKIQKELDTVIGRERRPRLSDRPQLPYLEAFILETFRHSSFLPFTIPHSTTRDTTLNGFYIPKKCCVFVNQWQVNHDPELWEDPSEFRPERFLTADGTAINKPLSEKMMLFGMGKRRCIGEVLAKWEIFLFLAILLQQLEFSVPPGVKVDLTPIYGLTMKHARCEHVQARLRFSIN
The experiment in a line: CYP1A2 inhibition (fluorescent substrate). Format: in vitro ADME. Conditions: CYP1A2, CEC substrate; read-out: Cyp IC50 1A2. The method, boiled down:
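First, 100 mM DMSO stocks are diluted into acetonitrile, then twofold through co-factor mix for 10 points. Next, mixtures are preincubated 10 min at 37 °C.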

In the case of `CCCS(=O)(=O)Nc1ccc(F)c(C(=O)c2c[nH]c3ncc(-c4ccc(OCCCN(C)C)nc4)cc23)c1F` [P-2178, Propane-1-sulfonic acid (3-{5-[6-(3-dimethylamino-propoxy)-pyridin-3-yl]-1H-pyrrolo[2,3-b]pyridine-3-carbonyl}-2,4-difluoro-phenyl)-amide], the IC50 on B-Raf V600E was below 0.01 µM; in data set [1], below 0.1 µM; at CYP1A2, above 10 µM.

For the compound `N#Cc1cnc2[nH]cc(C(=O)c3cccc(NS(=O)(=O)c4cccc(F)c4)c3F)c2c1` [P-2053, N-[3-(5-Cyano-1H-pyrrolo[2,3-b]pyridine-3-carbonyl)-2-fluoro-phenyl]-3-fluoro-benzenesulfonamide], the IC50 against B-Raf V600E was below 0.01 µM; in data set [1], below 5 µM; on CYP1A2, above 10 µM.

As for `CCCS(=O)(=O)Nc1ccc(F)c(C(=O)c2c[nH]c3ncc(-c4ccnc(F)c4)cc23)c1F` [P-2192, Propane-1-sulfonic acid {2,4-difluoro-3-[5-(2-fluoro-pyridin-4-yl)-1H-pyrrolo[2,3-b]pyridine-3-carbonyl]-phenyl}-amide], the IC50 against B-Raf V600E is below 0.01 µM; in data set [1] it was below 1 µM; at CYP1A2 it was above 10 µM.

Take `O=C(c1c(F)ccc(NS(=O)(=O)c2c(F)cccc2F)c1F)c1c[nH]c2nccc(Cl)c12` [P-2033, N-[3-(4-Chloro-1H-pyrrolo[2,3-b]pyridine-3-carbonyl)-2,4-difluoro-phenyl]-2,6-difluoro-benzenesulfonamide]: the IC50 against B-Raf V600E was below 0.01 µM; in data set [1], below 5 µM; at CYP1A2 it was above 10 µM.

`N#Cc1ccnc2[nH]cc(C(=O)c3c(F)ccc(NS(=O)(=O)c4cc(F)ccc4F)c3F)c12` [P-2036, N-[3-(4-Cyano-1H-pyrrolo[2,3-b]pyridine-3-carbonyl)-2,4-difluoro-phenyl]-2,5-difluoro-benzenesulfonamide]: the values for the IC50 (against B-Raf V600E; in data set [1]; at CYP1A2) were below 0.01 µM, below 5 µM and above 10 µM, respectively.

Consider `CCCS(=O)(=O)Nc1ccc(F)c(C(=O)c2c[nH]c3ncc(-c4ccc(S(N)(=O)=O)cc4)cc23)c1F` [P-2194, 4-{3-[2,6-Difluoro-3-(propane-1-sulfonylamino)-benzoyl]-1H-pyrrolo[2,3-b]pyridin-5-yl}-benzenesulfonamide], for which the IC50 against B-Raf V600E is below 0.01 µM; in data set [1], below 5 µM; on CYP1A2, above 10 µM.

As for `COc1ccnc2[nH]cc(C(=O)c3c(F)ccc(NS(=O)(=O)c4cccnc4)c3F)c12` [P-2073, Pyridine-3-sulfonic acid [2,4-difluoro-3-(4-methoxy-1H-pyrrolo[2,3-b]pyridine-3-carbonyl)-phenyl]-amide], the IC50 is below 0.1 µM against B-Raf V600E, below 10 µM in data set [1] and above 10 µM on CYP1A2.

As for `N#Cc1cnc2[nH]cc(C(=O)c3cccc(NS(=O)(=O)c4ccccc4F)c3F)c2c1` [P-2051, N-[3-(5-Cyano-1H-pyrrolo[2,3-b]pyridine-3-carbonyl)-2-fluoro-phenyl]-2-fluoro-benzenesulfonamide], the IC50 against B-Raf V600E is below 0.01 µM; in data set [1], below 1 µM; on CYP1A2, above 10 µM.

Regarding `CCCS(=O)(=O)Nc1ccc(F)c(C(=O)c2c[nH]c3ncc(-c4cnn(CCN5CCOCC5)c4)cc23)c1F` [P-2177, Propane-1-sulfonic acid (2,4-difluoro-3-{5-[1-(2-morpholin-4-yl-ethyl)-1H-pyrazol-4-yl]-1H-pyrrolo[2,3-b]pyridine-3-carbonyl}-phenyl)-amide], the results for the IC50 (on B-Raf V600E; in data set [1]; on CYP1A2) were below 0.01 µM, below 1 µM and above 10 µM, respectively.
